The source made the active and inactive calls. The rule behind the calls is not given here.

In experiment [1] the test system is Drosophila melanogaster. Kind of experiment: Insecticidal activity against Drosophila melanogaster larvae fed with compound incorporated diet assessed as mortality at 5 to 100 ug/ml after 72 hr by not choice test (reference value: 0%). It is filed as functional, organism-based.
Experiment [2] relates to Spodoptera frugiperda. Kind of experiment: Acute toxicity against last larval stage of Spodoptera frugiperda (fall armyworm) assessed as survival at 25 ug/ml applied topically onto abdomen measured after 24 hr (reference value: 98.8 +/-3.5%). It counts as functional.
For experiment [3], the system named is Spodoptera frugiperda. Briefly: Growth inhibitory activity against first-instar larval stage of Spodoptera frugiperda (fall armyworm) fed with compound incorporated diet assessed as weight gained at 25 ug/ml after 7 days (reference value: 100%). It counts as functional. Set-up: scale not given: the % may be the effect or the level left.
The test system of experiment [4] is Spodoptera frugiperda. Briefly: Growth inhibitory activity against Spodoptera frugiperda (fall armyworm) larvae fed with compound containing diet assessed as reduction in adult emergence at 20 ug/ml. It is filed as functional.
Experiment [5] deals with Spodoptera frugiperda. Briefly: Growth inhibitory activity against Spodoptera frugiperda (fall armyworm) larvae fed with compound containing diet assessed as reduction in adult emergence at 35 ug/ml. It is filed as functional.
In experiment [6] the test system is Spodoptera frugiperda. Briefly: Growth inhibitory activity against first-instar larval stage of Spodoptera frugiperda (fall armyworm) fed with compound incorporated diet assessed as length gained at 25 ug/ml after 21 days (reference value: 100%). It counts as functional. Set-up: scale not given: the % may be the effect or the level left.
The subject of experiment [7] is Drosophila melanogaster. Briefly: Insecticidal activity against Drosophila melanogaster larvae fed with compound incorporated diet assessed as mortality at 100 ug/ml after 72 hr by not choice test (reference value: 0%). It counts as functional.
The subject of experiment [8] is Spodoptera frugiperda. Briefly: Growth inhibitory activity against first-instar larval stage of Spodoptera frugiperda (fall armyworm) fed with compound incorporated diet assessed as weight gained at 50 ug/ml after 21 days (reference value: 100%). It is filed as functional.
Experiment [9] deals with Spodoptera frugiperda. Kind of experiment: Growth inhibitory activity against Spodoptera frugiperda (fall armyworm) larvae fed with compound containing diet assessed as growth index at 50 ug/ml (reference value: 0.95 +/-0.02 no_unit). It counts as functional.
Experiment [10] relates to Spodoptera frugiperda. Kind of experiment: Growth inhibitory activity against Spodoptera frugiperda (fall armyworm) larvae fed with compound containing diet assessed as delay in adult emergence. It is filed as functional, organism-based.
For experiment [11], the system named is Spodoptera frugiperda. Briefly: Growth inhibitory activity against first-instar larval stage of Spodoptera frugiperda (fall armyworm) fed with compound incorporated diet assessed as length gained at 10 ug/ml after 7 days (reference value: 100%). It is filed as functional.
Experiment [12] relates to Spodoptera frugiperda. Kind of experiment: Acute toxicity against last larval stage of Spodoptera frugiperda (fall armyworm) assessed as survival at 10 ug/ml applied topically onto abdomen measured after 24 hr (reference value: 98.8 +/-3.5%). It is filed as functional.
The test system of experiment [13] is Spodoptera frugiperda. Kind of experiment: Growth inhibitory activity against Spodoptera frugiperda (fall armyworm) larvae fed with compound containing diet assessed as growth index at 10 ug/ml (reference value: 0.95 +/-0.02 no_unit). It is filed as functional.
Experiment [14] deals with Spodoptera frugiperda. Briefly: Insecticidal activity against first-instar larval stage of Spodoptera frugiperda (fall armyworm) fed with compound incorporated diet assessed as mortality at 10 ug/ml after 21 days (reference value: 5.6%). It counts as functional. As to conditions: 504 h.
Experiment [15] concerns Spodoptera frugiperda. Briefly: Growth inhibitory activity against Spodoptera frugiperda (fall armyworm) larvae fed with compound containing diet assessed as relative growth index at 10 ug/ml (reference value: 1.0 no_unit). It is filed as functional.
The subject of experiment [16] is Spodoptera frugiperda. Briefly: Growth inhibitory activity against first-instar larval stage of Spodoptera frugiperda (fall armyworm) fed with compound incorporated diet assessed as weight gained at 25 ug/ml after 21 days (reference value: 100%). It counts as functional. Set-up: scale not given: the % may be the effect or the level left.
In experiment [17] the test system is Drosophila melanogaster. Kind of experiment: Insecticidal activity against Drosophila melanogaster larvae fed with compound incorporated diet assessed as mortality at 50 ug/ml after 72 hr by not choice test (reference value: 0%). It counts as functional.
Experiment [18] relates to Spodoptera frugiperda. Kind of experiment: Growth inhibitory activity against first-instar larval stage of Spodoptera frugiperda (fall armyworm) fed with compound incorporated diet assessed as length gained at 50 ug/ml after 7 days (reference value: 100%). It counts as functional.
The subject of experiment [19] is Spodoptera frugiperda. Kind of experiment: Growth inhibitory activity against first-instar larval stage of Spodoptera frugiperda (fall armyworm) fed with compound incorporated diet assessed as weight gained at 10 ug/ml after 21 days (reference value: 100%). It is filed as functional.
Experiment [20] concerns Spodoptera frugiperda. Briefly: Growth inhibitory activity against Spodoptera frugiperda (fall armyworm) larvae fed with compound containing diet assessed as growth index at 25 ug/ml (reference value: 0.95 +/-0.02 no_unit). It is filed as functional.
The test system of experiment [21] is Spodoptera frugiperda. Kind of experiment: Insecticidal activity against first-instar larval stage of Spodoptera frugiperda (fall armyworm) fed with compound incorporated diet assessed as mortality at 25 ug/ml after 21 days (reference value: 5.6%). It counts as functional. The note with it: 504 h.
In experiment [22] the test system is Spodoptera frugiperda. Briefly: Growth inhibitory activity against Spodoptera frugiperda (fall armyworm) larvae fed with compound containing diet assessed as delay in time to pupation. It counts as functional, organism-based.
For experiment [23], the system named is Spodoptera frugiperda. Briefly: Growth inhibitory activity against first-instar larval stage of Spodoptera frugiperda (fall armyworm) fed with compound incorporated diet assessed as length gained at 50 ug/ml after 21 days (reference value: 100%). It counts as functional.
Experiment [24] deals with Spodoptera frugiperda. Kind of experiment: Growth inhibitory activity against first-instar larval stage of Spodoptera frugiperda (fall armyworm) fed with compound incorporated diet assessed as length gained at 10 ug/ml after 21 days (reference value: 100%). It counts as functional.
Experiment [25] deals with Spodoptera frugiperda. Briefly: Growth inhibitory activity against Spodoptera frugiperda (fall armyworm) larvae fed with compound containing diet assessed as relative growth index at 50 ug/ml (reference value: 1.0 no_unit). It counts as functional.
The test system of experiment [26] is Drosophila melanogaster. Kind of experiment: Insecticidal activity against Drosophila melanogaster larvae fed with compound incorporated diet assessed as mortality at 20 ug/ml after 72 hr by not choice test (reference value: 0%). It counts as functional.
Experiment [27] has as its system Spodoptera frugiperda. Briefly: Insecticidal activity against first-instar larval stage of Spodoptera frugiperda (fall armyworm) fed with compound incorporated diet assessed as mortality at 25 ug/ml after 7 days (reference value: 5.6%). It counts as functional. The note with it: 168 h.
In experiment [28] the test system is Spodoptera frugiperda. Kind of experiment: Insecticidal activity against first-instar larval stage of Spodoptera frugiperda (fall armyworm) fed with compound incorporated diet assessed as mortality at 10 ug/ml after 7 days (reference value: 5.6%). It is filed as functional. As to conditions: 168 h.
In experiment [29] the test system is Spodoptera frugiperda. Briefly: Insecticidal activity against first-instar larval stage of Spodoptera frugiperda (fall armyworm) fed with compound incorporated diet assessed as mortality at 50 ug/ml after 7 days (reference value: 5.6%). It is filed as functional. As to conditions: 168 h.
For experiment [30], the system named is Spodoptera frugiperda. Kind of experiment: Growth inhibitory activity against po dosed Spodoptera frugiperda (fall armyworm) larvae assessed as promotion of apolysis to fifth instar with ecdysis inhibition at 5 to 20 ug/ml. It counts as functional, organism-based.
In experiment [31] the test system is Spodoptera frugiperda. Briefly: Growth inhibitory activity against first-instar larval stage of Spodoptera frugiperda (fall armyworm) fed with compound incorporated diet assessed as weight gained at 10 ug/ml after 7 days (reference value: 100%). It is filed as functional. Set-up: scale not given: the % may be the effect or the level left.
Experiment [32] deals with Spodoptera frugiperda. Briefly: Growth inhibitory activity against first-instar larval stage of Spodoptera frugiperda (fall armyworm) fed with compound incorporated diet assessed as weight gained at 50 ug/ml after 7 days (reference value: 100%). It is filed as functional. Set-up: scale not given: the % may be the effect or the level left.
In experiment [33] the test system is Spodoptera frugiperda. Briefly: Insecticidal activity against first-instar larval stage of Spodoptera frugiperda (fall armyworm) fed with compound incorporated diet assessed as mortality at 50 ug/ml after 21 days (reference value: 5.6%). It counts as functional. As to conditions: 504 h.
Experiment [34] deals with Spodoptera frugiperda. Briefly: Growth inhibitory activity against po dosed fourth-instar larvae of Spodoptera frugiperda (fall armyworm) assessed as proportion of prothetely appearance of precocious pupal structure in larvae after 48 to 72 hr. It counts as functional. Set-up: scale not given: the % may be the effect or the level left.
Experiment [35] has as its system Spodoptera frugiperda. Kind of experiment: Growth inhibitory activity against first-instar larval stage of Spodoptera frugiperda (fall armyworm) fed with compound incorporated diet assessed as length gained at 25 ug/ml after 7 days (reference value: 100%). It counts as functional. Set-up: scale not given: the % may be the effect or the level left.
For experiment [36], the system named is Spodoptera frugiperda. Briefly: Growth inhibitory activity against Spodoptera frugiperda (fall armyworm) larvae fed with compound containing diet assessed as relative growth index at 25 ug/ml (reference value: 1.0 no_unit). It counts as functional.
Experiment [37] has as its system Spodoptera frugiperda. Kind of experiment: Growth inhibitory activity against Spodoptera frugiperda (fall armyworm) larvae fed with compound containing diet assessed as relative growth index at 35 ug/ml (reference value: 1.0 no_unit). It is filed as functional.
Experiment [38] has as its system Spodoptera frugiperda. Briefly: Growth inhibitory activity against Spodoptera frugiperda (fall armyworm) larvae fed with compound containing diet assessed as growth index at 35 ug/ml (reference value: 0.95 +/-0.02 no_unit). It counts as functional.

Turning to `C=C(C)[C@@H]1CC[C@]2(C)CC[C@]3(C)[C@H](CC[C@@H]4[C@@]5(C)CC[C@H](O)C(C)(C)[C@@H]5CC[C@]43C)[C@@H]12`, the mortality (commonly the percentage killed) in the experiment with Drosophila melanogaster [1] is “inactive”.
The same measure, in the same setting: for `CC[C@H](CC[C@@H](C)[C@H]1CC[C@H]2[C@@H]3CC=C4C[C@@H](O)CC[C@]4(C)[C@H]3CC[C@]12C)C(C)C` the value was “inactive”; for `CC1OC2=C(C(=O)c3ccccc3C2=O)C1(C)C` (stereo unspecified), “inactive”.
Turning to `CC(=O)O[C@@H]1C[C@H]2C(C)(C)C(=O)C=C[C@]2(C)[C@H]2CC[C@@]3(C)[C@H](c4ccoc4)OC(=O)[C@H]4O[C@]43[C@@]21C` [GEDUNIN], the Activity is recorded as 14.1% in the experiment on Spodoptera frugiperda [2]; 3.3% in the experiment on Spodoptera frugiperda [3]; 0% in the experiment with Spodoptera frugiperda [6]; 54.7% with Spodoptera frugiperda [12]; 0% in the experiment with Spodoptera frugiperda [16]; 7.1% with Spodoptera frugiperda [31]. Moreover, the figures for the Activity in the experiment on Spodoptera frugiperda [32], in the experiment on Spodoptera frugiperda [34] and with Spodoptera frugiperda [35] were 1.9%, 30% and 20%, respectively. In the experiment with Spodoptera frugiperda [4], the inhibition (as a rule, the drop in the measured response relative to a control, in per cent) at 20 µg/mL turned out to be 0%. Besides, the inhibition at 35 µg/mL with Spodoptera frugiperda [5] came out at 0%. In addition, the mortality at 100 µg/mL in the experiment with Drosophila melanogaster [7] came out at 11%. The “Weight gain relative to control” value with Spodoptera frugiperda [8] is recorded as 2.05%. Moreover, the Growth_index with Spodoptera frugiperda [9] is on record as 0.1; in the experiment on Spodoptera frugiperda [13] it was 0.77; in the experiment on Spodoptera frugiperda [15], 0.71; in the experiment on Spodoptera frugiperda [20], 0.51; in the experiment with Spodoptera frugiperda [25], 0.11; with Spodoptera frugiperda [36], 0.55. For the same compound, the inhibition entry in the experiment on Spodoptera frugiperda [10] and in the experiment with Spodoptera frugiperda [22] was “Active” in each case. The “Larval length gained (% of control)” value in the experiment with Spodoptera frugiperda [11] is given as 32.5%. Besides, the mortality at 10 µg/mL in the experiment on Spodoptera frugiperda [14] worked out at 100%; with Spodoptera frugiperda [28] it was 33%. Also, the mortality at 50 µg/mL came out at 100% in the experiment with Drosophila melanogaster [17], 70.8% with Spodoptera frugiperda [29] and 98.7% in the experiment on Spodoptera frugiperda [33]. Moreover, the “Length gain relative to control” value in the experiment on Spodoptera frugiperda [18] came to 16.7%. The “Weight gain (% of control)” value in the experiment with Spodoptera frugiperda [19] is listed as 0%. Further, the mortality at 25 µg/mL is 100% in the experiment with Spodoptera frugiperda [21] and 38% with Spodoptera frugiperda [27]. For the same compound, the “Length gained (% of control)” value in the experiment with Spodoptera frugiperda [23] turned out to be 11.6%. In addition, in the experiment on Spodoptera frugiperda [24], the “Length gained relative to control” value stood at 0%. Besides, the mortality at 20 µg/mL with Drosophila melanogaster [26] was 87.1%. For the same compound, the result in the experiment with Spodoptera frugiperda [30] was Active.
As for `C[C@@H]1O[C@@H](O[C@@H]2[C@@H](O)[C@H](OCCc3ccc(O)c(O)c3)O[C@H](CO)[C@H]2OC(=O)/C=C/c2ccc(O)c(O)c2)[C@H](O)[C@H](O)[C@H]1O` [ACETOSIDE], the mortality at 100 µg/mL in the experiment on Drosophila melanogaster [7] was found to be 100%. Besides, the Growth_index with Spodoptera frugiperda [9] turned out to be 0.07; in the experiment on Spodoptera frugiperda [13], 0.66; in the experiment with Spodoptera frugiperda [15], 0.67; in the experiment on Spodoptera frugiperda [20], 0.41; with Spodoptera frugiperda [25], 0.1; in the experiment on Spodoptera frugiperda [37], 0.15. Moreover, the Growth_index with Spodoptera frugiperda [38] was 0.09; in the experiment with Spodoptera frugiperda [36] it was 0.45. In addition, in the experiment on Drosophila melanogaster [17], the mortality at 50 µg/mL turned out to be 100%. Also, the mortality at 20 µg/mL in the experiment on Drosophila melanogaster [26] was 92%. In addition, the outcome in the experiment on Spodoptera frugiperda [30] was Active. In addition, in the experiment with Spodoptera frugiperda [34], the Activity was found to be 30%.

(Values after ChEMBL document CHEMBL3046322, “Insect growth regulatory effects by diterpenes from Calceolaria talcana Grau & Ehrhart (Calceolariaceae: Scrophulariaceae) against Spodoptera frugiperda and Drosophila melanogaster” (2013).)
